According to patent US20080311092A1, “Murine Stem Cells and Applications Thereof” (priority 2005, published 2008):
Entries after “also recorded” stand apart in the source; their conditions may differ. Like-named read-outs stand apart in the source and are kept apart here.

Assays:
[1] = test system: diffuse large B-cell lymphoma; assay: Doxorubicin treatment of Sca1/BCL6 cancer stem cell model mice, cell counting; format: in vivo, mouse
Procedure: DXR (doxorubicin) was dosed at 7 mg/kg. […] Drugs were dissolved in water and delivered intravenously. Water was used as placebo.

[2] = test system: human lung cancer; conditions: humans; cited from earlier work
[3] = test system: lung cancer; assay: Doxorubicin treatment of Sca1/hKRAS CSC model lung cancer mice, survival study; format: in vivo, mouse; conditions: for Outcome of treatment in the lung cancer CSC mouse model: Sca1/hKRAS mice
Procedure: DXR (doxorubicin) was dosed at 7 mg/kg. The administration scheme was every 7th day, 3 times—q7dx3—for a duration of 4-5 weeks. Drugs were dissolved in water and delivered intravenously. Water was used as placebo.

[4] = test system: human lymphomas; conditions: humans; cited from earlier work
[5] = test system: CSC that express BCR-ABL; assay: Ganciclovir treatment of PLy6-HSVtk-IRES-BCRABLp210 (Sca1-IRES-HVTK-BCR-ABL p210) mice; format: in vivo, mouse; conditions: for Disappearance of cancers / tumour burden on GCV treatment: PLy6-HSVtk-IRES-BCRABLp210 mice, 100% with tumours at start, 60 mice injected daily with GCV (100 mg/kg/day i.p.)
Procedure: PLy6-HSVtk-IRES-BCRABLp210 mice were used to test the effectiveness of GCV-induced cell death in CSC that express BCR-ABL. GCV, after preliminary testing, was administered at a dose of 100 mg/kg/day by i.p. injection for 14 days. This dose has been reported to kill cells expressing HSV-tk in transgenic mice (Bush TG. Cell 1998, 93: 189-201). Dosing started when the mice were leukaemic. A control group was given injections of normal saline.
(§1) Ganciclovir: stock solutions were prepared following the SIGMA indications. The regimen was 100 mg/kg/day by intraperitoneal injection for 14 days. The placebo was an equal volume of diluent water/normal saline.
30 mice were used as a control and were subjected daily with saline solution whereas the 60 remaining mice were injected daily with GCV as described in method section.
(§2) The mice were treated either with ganciclovir (GCV) or with placebo, as described under materials and methods. For each mouse model, 60 mice were injected daily with ganciclovir, and 30 mice were used as a control and injected daily with saline (placebo).

[6] = test system: Sca1-positive cells; assay: Ganciclovir treatment of Sca1-BCL6-IRES-HVTK mice; format: in vivo, mouse
Procedure: as §1
CSC mouse cancer models (Sca1-HVTK-IRES-BCR-ABLp210 and Sca1-BCL6-IRES-HVTK mice) were used to address the question of whether the selective ablation of Sca1-positive cells is effective in the therapy of cancer.
as §2

[7] = test system: B cell acute lymphoblastic leukaemia (B-ALL); conditions: BCR-ABLp210 mouse model, not stem-cell targeted; cited from earlier work
[8] = test system: human CML; conditions: cited from earlier work; for Outcome of treatment in human CML: humans

COc1cccc2c1C(=O)c1c(O)c3c(c(O)c1C2=O)C[C@@](O)(C(=O)CO)C[C@@H]3O[C@H]1C[C@H](N)[C@H](O)[C@H](C)O1 [doxorubicin]
Outcome of treatment of diffuse large B-cell lymphoma in CSC mice ([1]; Sca1/BCL6 CSC mouse model): ineffective; also recorded: unsuccessful
Change in number of B cells ([1]; Sca1/BCL6 mice, 3-5 month course of doxorubicin treatment): decreased or increased slightly
Factor by which the number of CSC increased ([1]; Sca1/BCL6 mice, over three months of doxorubicin treatment): 7-8
Outcome of treatment of human lung cancer [2]: unsuccessful
Survival: none of the treated mice survived longer than ([3]; CSC model lung cancer mice, doxorubicin 7 mg/kg i.v. q7dx3): ≤ 20 weeks
Outcome of treatment in the lung cancer CSC mouse model [3]: ineffective; also recorded: unsuccessful
Outcome of treatment in the lung cancer CSC mouse model ([3]; listed as Doxorubicin): also unsuccessful
Outcome of treatment in human lymphoma / DLBCL patients [4]: virtually all human lymphoma patients treated with doxorubicin relapse

Nc1nc(O)c2ncn(COC(CO)CO)c2n1 [ganciclovir]
Tumour recurrence during further monitoring ([5]; 8 weeks of further monitoring): did not recur
Time of treatment after which tumours disappeared completely ([5]; 60 Sca1-IRES-HVTK-BCR-ABL p210 mice treated with ganciclovir): 8 weeks
Disappearance of cancers / tumour burden on GCV treatment ([5]; listed as GCV): cancers disappeared completely
Disappearance of cancers / tumour burden on GCV treatment ([5]; listed as Gancyclovir): complete reduction of tumour burden
Tumour recurrence (CML and solid tumours) after GCV treatment ([5]; additional 3 months of observation after cancers disappeared): no tumour recurrence was observed
Time to elimination of all tumours ([6]; Sca1-BCL6-IRES-HVTK mice, 60 mice injected daily with ganciclovir): 10 weeks
Tumour recurrence during additional monitoring ([6]; additional 11 weeks of monitoring): no tumour recurrence was observed

Cc1ccc(NC(=O)c2ccc(CN3CCN(C)CC3)cc2)cc1Nc1nccc(-c2cccnc2)n1 [Gleevec™, imatinib]
Outcome of treatment in conventional mouse B-ALL model [7]: cures the cancer
Effect on leukaemic stem cells in humans ([8]; Michor F et al. Nature (2005)): does not deplete leukaemic stem cells
Outcome of treatment in human CML [8]: only gives symptomatic relief; also recorded: typically relapse
Outcome of treatment in human CML ([8]; listed as Gleevec): provides symptomatic relief
